Target: T1, P2X7 receptor (Homo sapiens, UniProt Q99572)
T1 construct: host or cells: SH-SY5Y
T1 sequence (Q99572 1-595): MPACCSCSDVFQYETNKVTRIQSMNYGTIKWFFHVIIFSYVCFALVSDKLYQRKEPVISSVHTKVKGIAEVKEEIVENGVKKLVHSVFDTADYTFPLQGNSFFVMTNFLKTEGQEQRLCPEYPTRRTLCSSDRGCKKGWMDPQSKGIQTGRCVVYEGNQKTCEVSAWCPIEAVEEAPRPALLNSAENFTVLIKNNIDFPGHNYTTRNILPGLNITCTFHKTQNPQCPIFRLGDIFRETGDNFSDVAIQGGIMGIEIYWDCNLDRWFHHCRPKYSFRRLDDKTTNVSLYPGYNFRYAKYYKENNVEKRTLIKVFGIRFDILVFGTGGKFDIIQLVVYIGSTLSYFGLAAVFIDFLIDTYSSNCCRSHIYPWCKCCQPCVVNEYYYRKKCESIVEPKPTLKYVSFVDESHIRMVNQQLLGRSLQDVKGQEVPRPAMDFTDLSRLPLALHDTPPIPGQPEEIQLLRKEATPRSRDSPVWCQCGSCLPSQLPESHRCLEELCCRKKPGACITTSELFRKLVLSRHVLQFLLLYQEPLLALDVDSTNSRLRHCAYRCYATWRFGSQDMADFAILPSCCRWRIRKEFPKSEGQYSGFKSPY
Test: High throughput P2X7 calcium mobilization assay (Example 4A)
Type: cell-based
Conditions: SH-SY5Y cells; 50% decrease in fluorescence response of cells exposed to 80 μM BzATP; Table I
How it was run: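 Calcium mobilization read by FLIPR as peak fluorescence over 2 min after adding BzATP to a final 80 μM (about EC50). Beforehand, Fluo-4 AM-loaded SH-SY5Y cells sat 1 h at room temperature with compound at 1–2500 nM in pH 7.4 sucrose/HEPES buffer; signal minus no-agonist wells.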

IC50 | SMILES
≤ 2 µM | CCc1nc(-c2ncccn2)sc1C(=O)NCC(c1ccc(C(F)(F)F)cc1)N(C)C(C)C (stereo not shown) [Compound 315, 4-ethyl-N-{2-[isopropyl(methyl)amino]-2-[4-(trifluoromethyl)phenyl]ethyl}-2-pyrimidin-2-yl-1,3-thiazole-5-carboxamide]
≤ 2 µM | O=C(NCC1(c2cccnc2)CCCCC1)c1sc(-c2cnccn2)nc1C(F)(F)F [Compound 316, 2-pyrazin-2-yl-N-[(1-pyridin-3-ylcyclohexyl)methyl]-4-(trifluoromethyl)-1,3-thiazole-5-carboxamide]
≤ 2 µM | O=C(NCC1(c2cccnc2)CCCCC1)c1sc(-c2nccs2)nc1C(F)(F)F [Compound 317, N-[(1-pyridin-3-ylcyclohexyl)methyl]-4-(trifluoromethyl)-2,2′-bi-1,3-thiazole-5-carboxamide]
≤ 2 µM | O=C(NCC1(c2cccnc2)CCCCC1)c1sc(-c2ccc3[nH]ccc3c2)nc1C(F)(F)F [Compound 318, 2-(1H-indol-5-yl)-N-[(1-pyridin-3-ylcyclohexyl)methyl]-4-(trifluoromethyl)-1,3-thiazole-5-carboxamide]
≤ 2 µM | O=C(NCC1(c2cccnc2)CCCCC1)c1sc(-c2cccc3cccnc23)nc1C(F)(F)F [Compound 319, N-[(1-pyridin-3-ylcyclohexyl)methyl]-2-quinolin-8-yl-4-(trifluoromethyl)-1,3-thiazole-5-carboxamide]
≤ 2 µM | CC(C)CC(CNC(=O)c1sc(-c2ncccn2)nc1C(F)(F)F)c1cccnc1 (stereo not shown) [Compound 320, N-(4-methyl-2-pyridin-3-ylpentyl)-2-pyrimidin-2-yl-4-(trifluoromethyl)-1,3-thiazole-5-carboxamide]
≤ 2 µM | O=C(NCC1(c2cccnc2)CCCCC1)c1sc(-c2ccccn2)nc1C(F)(F)F [Compound 321, 2-pyridin-2-yl-N-[(1-pyridin-3-ylcyclohexyl)methyl]-4-(trifluoromethyl)-1,3-thiazole-5-carboxamide]
